Read-outs that look alike come from different tables or passages of the source.
How the values were obtained:
BACE1 = BACE1 (Homo sapiens, UniProt P56817); experiment: In vitro enzymatic BACE FRET assay; assay type: biochemical; conditions: beta secretase enzyme 0.2 nM, FRET substrate 50 nM, pH 4.2
Procedure, shortened: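 Beta-secretase (0.2 nM) was pre-incubated 1 h with serially diluted inhibitor in 0.05 M acetate pH 4.2, 10% DMSO, 100 uM genapol. Then 50 nM quenched peptide FRET substrate was added for 1 h. The reaction was stopped with Tris to neutral pH and fluorescence read ([…]).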

[1] = test system: Aβ40 in conditioned medium of cells stably expressing Amyloid Precursor Protein (APP); experiment: In vitro BACE cell-based assay (HEK cell assay), Aβ40 sandwich ELISA; conditions: Homo sapiens, HEK293, 24 h, inhibition of Aβ40, 24 h incubation, read-out: HEK cell assay (IC50 class)
Procedure, shortened: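 APP-stably expressing cells (40K/well) grown 24 h, then treated 24 h with 10-point doses from 100 μM or 10 μM top (0.1% DMSO). Secreted Aβ40 quantified by sandwich ELISA (pAb40 capture, biotinylated 6E10 detection, europium time-resolved fluorescence); IC50 from percent inhibition versus concentration.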

[2] = read-out: BACE1 FRET assay (IC50 class)
[3] = read-out: BACE1 FRET assay (IC50, numeric)

Chain of BACE1 (P56817 46-501, species assumed): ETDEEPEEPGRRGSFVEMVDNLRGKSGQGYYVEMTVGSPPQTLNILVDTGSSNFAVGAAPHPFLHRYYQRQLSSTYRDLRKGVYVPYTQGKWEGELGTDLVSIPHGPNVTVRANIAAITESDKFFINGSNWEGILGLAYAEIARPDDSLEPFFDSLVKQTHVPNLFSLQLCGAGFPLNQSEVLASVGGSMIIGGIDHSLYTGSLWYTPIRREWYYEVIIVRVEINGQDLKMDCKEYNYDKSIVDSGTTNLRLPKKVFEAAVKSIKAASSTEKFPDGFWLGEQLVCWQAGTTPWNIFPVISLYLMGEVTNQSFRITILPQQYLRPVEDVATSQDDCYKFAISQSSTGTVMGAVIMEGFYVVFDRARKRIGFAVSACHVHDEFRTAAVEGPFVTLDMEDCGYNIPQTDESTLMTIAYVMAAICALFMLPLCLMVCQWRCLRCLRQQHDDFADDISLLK

| IC50 (BACE1; [2]) | IC50 [1] | IC50 (BACE1; [3]) | Structure (SMILES) |
| --- | --- | --- | --- |
| 100 to 500 nM | 1010 to 5000 nM | – | CCN(C(=O)c1cccc(C)c1-c1ccc2nc(N)c(N3CCOCC3)cc2c1)C1CC1 [Example 107, 2-(2-amino-3-morpholinoquinolin-6-yl)-N-cyclopropyl-N-ethyl-3-methylbenzamide] |
| < 100 nM | 501 to 1000 nM | – | C#CCN(C)C(=O)c1cccc(C)c1-c1ccc2nc(N)c(N3CCOCC3)cc2c1 [Example 108, 2-(2-amino-3-morpholinoquinolin-6-yl)-N,3-dimethyl-N-(prop-2-ynyl)benzamide] |
| < 100 nM | 501 to 1000 nM | – | Cc1cccc(C(=O)N2CCC(F)(F)CC2)c1-c1ccc2nc(N)c(N3CCOCC3)cc2c1 [Example 109, (2-(2-amino-3-morpholinoquinolin-6-yl)-3-methylphenyl)(4,4-difluoropiperidin-1-yl)methanone] |
| 100 to 500 nM | 1010 to 5000 nM | – | CCCN(C)C(=O)c1cccc(C)c1-c1ccc2nc(N)c(N3CCOCC3)cc2c1 [Example 110, 2-(2-amino-3-morpholinoquinolin-6-yl)-N,3-dimethyl-N-propylbenzamide] |
| – | > 5000 nM | 1540 nM | CCCN(CC1CC1)C(=O)c1cccc(C)c1-c1ccc2nc(N)c(N3CCOCC3)cc2c1 [Example 111, 2-(2-amino-3-morpholinoquinolin-6-yl)-N-(cyclopropylmethyl)-3-methyl-N-propylbenzamide] |
| < 100 nM | 1010 to 5000 nM | – | Cc1cccc(C(=O)N(C)C2CCCCC2)c1-c1ccc2nc(N)c(N3CCOCC3)cc2c1 [Example 112, 2-(2-amino-3-morpholinoquinolin-6-yl)-N-cyclohexyl-N,3-dimethylbenzamide] |
| 100 to 500 nM | 1010 to 5000 nM | – | CCN(C(=O)c1cccc(C)c1-c1ccc2nc(N)c(N3CCOCC3)cc2c1)C1CCCCC1 [Example 113, 2-(2-amino-3-morpholinoquinolin-6-yl)-N-cyclohexyl-N-ethyl-3-methylbenzamide] |
| – | > 5000 nM | 1140 nM | CSC1=NCCN1C(=O)c1cccc(C)c1-c1ccc2nc(N)c(N3CCOCC3)cc2c1 [Example 114, (2-(2-amino-3-morpholinoquinolin-6-yl)-3-methylphenyl)(2-(methylthio)-4,5-dihydro-1H-imidazol-1-yl)methanone] |
| < 100 nM | 501 to 1000 nM | – | Cc1cccc(C(=O)N2CCCC(C)C2)c1-c1ccc2nc(N)c(N3CCOCC3)cc2c1 (stereo not drawn) [Example 115, (2-(2-amino-3-morpholinoquinolin-6-yl)-3-methylphenyl)(3-methylpiperidin-1-yl)methanone] |
| 100 to 500 nM | 1010 to 5000 nM | – | C=CCN(CC=C)C(=O)c1cccc(C)c1-c1ccc2nc(N)c(N3CCOCC3)cc2c1 [Example 116, N,N-diallyl-2-(2-amino-3-morpholinoquinolin-6-yl)-3-methylbenzamide] |
| < 100 nM | 1010 to 5000 nM | – | CCCCN(C)C(=O)c1cccc(C)c1-c1ccc2nc(N)c(N3CCOCC3)cc2c1 [Example 117, 2-(2-amino-3-morpholinoquinolin-6-yl)-N-butyl-N,3-dimethylbenzamide] |

More lines, now with the values behind:

| Structure (SMILES) | IC50 (BACE1; [2]) | IC50 [1] | IC50 (BACE1; [3]) |
| --- | --- | --- | --- |
| CCOC1CCCN(C(=O)c2cccc(C)c2-c2ccc3nc(N)c(N4CCOCC4)cc3c2)C1 (stereo not drawn) [Example 85, (2-(2-amino-3-morpholinoquinolin-6-yl)-3-methylphenyl)(3-ethoxypiperidin-1-yl)methanone] | 100 to 500 nM | 1010 to 5000 nM | – |
| Cc1cccc(C(=O)N2CCCC(C)(C)C2)c1-c1ccc2nc(N)c(N3CCOCC3)cc2c1 [Example 86, (2-(2-amino-3-morpholinoquinolin-6-yl)-3-methylphenyl)(3,3-dimethylpiperidin-1-yl)methanone] | < 100 nM | 100 to 500 nM | – |
| Cc1cccc(C(=O)N2CCCCC2C)c1-c1ccc2nc(N)c(N3CCOCC3)cc2c1 (stereo not drawn) [Example 87, (2-(2-amino-3-morpholinoquinolin-6-yl)-3-methylphenyl)(2-methylpiperidin-1-yl)methanone] | < 100 nM | 501 to 1000 nM | – |
| Cc1cccc(C(=O)N2CC(C)CC(C)C2)c1-c1ccc2nc(N)c(N3CCOCC3)cc2c1 (stereo not drawn) [Example 88, (2-(2-amino-3-morpholinoquinolin-6-yl)-3-methylphenyl)(3,5-dimethylpiperidin-1-yl)methanone] | 100 to 500 nM | 1010 to 5000 nM | – |
| Cc1cccc(C(=O)N2CCSC2)c1-c1ccc2nc(N)c(N3CCOCC3)cc2c1 [Example 89, (2-(2-amino-3-morpholinoquinolin-6-yl)-3-methylphenyl)(thiazolidin-3-yl)methanone] | < 100 nM | 501 to 1000 nM | – |
| Cc1cccc(C(=O)N2CC=CC2)c1-c1ccc2nc(N)c(N3CCOCC3)cc2c1 [Example 90, (2-(2-amino-3-morpholinoquinolin-6-yl)-3-methylphenyl)(2,5-dihydro-1H-pyrrol-1-yl)methanone] | < 100 nM | 501 to 1000 nM | – |
| Cc1cccc(C(=O)N2CCSCC2)c1-c1ccc2nc(N)c(N3CCOCC3)cc2c1 [Example 91, (2-(2-amino-3-morpholinoquinolin-6-yl)-3-methylphenyl)(thiomorpholino)methanone] | < 100 nM | 1010 to 5000 nM | – |
| Cc1cccc(C(=O)N(C)C2CCCC2)c1-c1ccc2nc(N)c(N3CCOCC3)cc2c1 [Example 92, 2-(2-amino-3-morpholinoquinolin-6-yl)-N-cyclopentyl-N,3-dimethylbenzamide] | < 100 nM | 501 to 1000 nM | – |
| Cc1cccc(C(=O)N2CCC(C(C)(C)C)CC2)c1-c1ccc2nc(N)c(N3CCOCC3)cc2c1 [Example 93, (2-(2-amino-3-morpholinoquinolin-6-yl)-3-methylphenyl)(4-tert-butylpiperidin-1-yl)methanone] | < 100 nM | 501 to 1000 nM | – |
| Cc1cccc(C(=O)N2CCC[C@H]2C(F)(F)F)c1-c1ccc2nc(N)c(N3CCOCC3)cc2c1 [Example 94, (S)-(2-(2-amino-3-morpholinoquinolin-6-yl)-3-methylphenyl)(2-(trifluoromethyl)pyrrolidin-1-yl)methanone] | 100 to 500 nM | 1010 to 5000 nM | – |
| Cc1cccc(C(=O)N2CCC(F)CC2)c1-c1ccc2nc(N)c(N3CCOCC3)cc2c1 [Example 95, (2-(2-amino-3-morpholinoquinolin-6-yl)-3-methylphenyl)(4-fluoropiperidin-1-yl)methanone] | < 100 nM | 1010 to 5000 nM | – |
| Cc1cccc(C(=O)N2CCC(C(F)(F)F)C2)c1-c1ccc2nc(N)c(N3CCOCC3)cc2c1 (stereo not drawn) [Example 96, (2-(2-amino-3-morpholinoquinolin-6-yl)-3-methylphenyl)(3-(trifluoromethyl)pyrrolidin-1-yl)methanone] | < 100 nM | 1010 to 5000 nM | – |
| Cc1cccc(C(=O)N2CCCC(F)(F)C2)c1-c1ccc2nc(N)c(N3CCOCC3)cc2c1 [Example 97, (2-(2-amino-3-morpholinoquinolin-6-yl)-3-methylphenyl)(3,3-difluoropiperidin-1-yl)methanone] | < 100 nM | 501 to 1000 nM | – |
| Cc1cccc(C(=O)N2CCC(F)(F)C2)c1-c1ccc2nc(N)c(N3CCOCC3)cc2c1 [Example 98, (2-(2-amino-3-morpholinoquinolin-6-yl)-3-methylphenyl)(3,3-difluoropyrrolidin-1-yl)methanone] | < 100 nM | 100 to 500 nM | – |
| Cc1cccc(C(=O)N2CC(F)(F)C2)c1-c1ccc2nc(N)c(N3CCOCC3)cc2c1 [Example 99, (2-(2-amino-3-morpholinoquinolin-6-yl)-3-methylphenyl)(3,3-difluoroazetidin-1-yl)methanone] | 100 to 500 nM | 501 to 1000 nM | – |
| Cc1cccc(C(=O)N(C)CC(F)(F)F)c1-c1ccc2nc(N)c(N3CCOCC3)cc2c1 [Example 100, 2-(2-amino-3-morpholinoquinolin-6-yl)-N,3-dimethyl-N-(2,2,2-trifluoroethyl)benzamide] | 100 to 500 nM | 1010 to 5000 nM | – |
| Cc1cccc(C(=O)N2CC[C@@H](C)C2)c1-c1ccc2nc(N)c(N3CCOCC3)cc2c1 [Example 101, (R)-(2-(2-amino-3-morpholinoquinolin-6-yl)-3-methylphenyl)(3-methylpyrrolidin-1-yl)methanone] | < 100 nM | 501 to 1000 nM | – |
| CCN(CC)C(=O)c1cccc(C)c1-c1ccc2nc(N)c(N3CCOCC3)cc2c1 [Example 102, 2-(2-amino-3-morpholinoquinolin-6-yl)-N,N-diethyl-3-methylbenzamide] | 100 to 500 nM | 1010 to 5000 nM | – |
| Cc1cccc(C(=O)N2CCC2)c1-c1ccc2nc(N)c(N3CCOCC3)cc2c1 [Example 103, (2-(2-amino-3-morpholinoquinolin-6-yl)-3-methylphenyl)(azetidin-1-yl)methanone] | 100 to 500 nM | 501 to 1000 nM | – |
| Cc1cccc(C(=O)N(C)CC(C)C)c1-c1ccc2nc(N)c(N3CCOCC3)cc2c1 [Example 104, 2-(2-amino-3-morpholinoquinolin-6-yl)-N-isobutyl-N,3-dimethylbenzamide] | < 100 nM | 501 to 1000 nM | – |
| CCCN(CC)C(=O)c1cccc(C)c1-c1ccc2nc(N)c(N3CCOCC3)cc2c1 [Example 105, 2-(2-amino-3-morpholinoquinolin-6-yl)-N-ethyl-3-methyl-N-propylbenzamide] | 501 to 1000 nM | 1010 to 5000 nM | – |
| CCCN(C(=O)c1cccc(C)c1-c1ccc2nc(N)c(N3CCOCC3)cc2c1)C(C)C [Example 106, 2-(2-amino-3-morpholinoquinolin-6-yl)-N-isopropyl-3-methyl-N-propylbenzamide] | 501 to 1000 nM | > 5000 nM | – |

Reference: patent US8735384B2, “Amino heteroaryl compounds as beta-secretase modulators and methods of use” (Amgen Inc., priority 2010, dated 2014)
